{"source": "patent US20160256449A1", "about": "“H3 RECEPTOR ANTAGONIST FOR USE IN THE TREATMENT OF ALZHEIMER'S DISEASE” (SANOFI, priority 2013, published 2016)", "key": {"[1]": {"tested_on": "CD1 male mice", "test": "object recognition test in normal mice", "type": "in vivo", "text": "FIG. 1 illustrates the results of the effect of a co-treatment with 2-(cyclohexyl methyl)-N-{2-[(2S)-1-methyl pyrrolidin-2-yl]ethyl}-1,2,3,4-tetrahydroisoquinoline-7-sulfonamide and donepezil on recognition memory in normal mice at various delays using the object recognition task.\nThe results of this study are depicted in FIG. 1."}, "[2]": {"tested_on": "scopolamine treated mice", "test": "object recognition task in scopolamine-treated mice", "type": "in vivo", "text": "FIG. 2 illustrates the results of the effect of a co-treatment with 2-(cyclohexylmethyl)-N-{2-[(2S)-1-methylpyrrolidin-2-yl]ethyl}-1,2,3,4-tetrahydroisoquinoline-7-sulfonamide and donepezil on recognition memory deficit in scopolamine-treated mice using the object recognition task.\nThe results of this study are depicted in FIG. 2."}, "[3]": {"tested_on": "patients with mild to moderate Alzheimer's disease", "test": "clinical study, AES-I apathy score", "type": "in vivo, human", "conditions": "5 mg/day with donepezil", "protocol": "“AES-I” as used herein, refers to the Apathy Evaluation Scale for Informant which assess global measure of apathy. Scores range from 18 (best possible) to 72 (worst possible).\n(§1) A randomized, double-blind, parallel-group, placebo-controlled clinical trial was performed to study the effect on cognitive performance, safety, and tolerability of 2-(cyclohexylmethyl)-N-{2-[(2S)-1-methylpyrrolidin-2-yl]ethyl}-1,2,3,4-tetrahydroisoquinoline-7-sulfonamide difumarate monohydrate as adjunct treatment to donepezil.\n(§2) More specifically, patients with mild to moderate Alzheimer's disease on stable donepezil therapy were randomized to receive doses of 0.5 mg, 2 mg, or 5 mg/day of 2-(cyclohexylmethyl)-N-{2-[(2S)-1-methylpyrrolidin-2-yl]ethyl}-1,2,3,4-tetrahydroisoquinoline-7-sulfonamide difumarate monohydrate or placebo for 24 weeks, with a 10 week follow-up period.\n(§3) Patients were randomized to receive 0.5 mg, 2 mg, or 5 mg of 2-(cyclohexylmethyl)-N-{2-[(2S)-1-methylpyrrolidin-2-yl]ethyl}-1,2,3,4-tetrahydroisoquinoline-7-sulfonamide difumarate monohydrate (measured in base form), or matching placebo once a day, with donepezil (5 mg or 10 mg in the form the patient took prior to enrollment), for 24 weeks, with or without food.\nChange from baseline to Week 12 and 24 in the Apathy Evaluation Scale for Informant (AES-I) score; and […]"}, "[4]": {"tested_on": "patients with mild to moderate Alzheimer's disease", "test": "clinical study, responder analysis on combined criterion (ADAS-Cog, ADCS-ADL, CGIC)", "type": "in vivo, human", "conditions": "week 24", "text": "FIG. 7 illustrates the rate of “responders” at week 24 for the four dose group according to a combined criterion on the ADAS-Cog (2 points improvement vs baseline), ADCS-ADL (no worsening) and CGIC (no worsening) during the clinical study described in Example 2, in the mITT population.\n“CGIC” as used herein, refers to the Clinical Global impression of Change assessed (at week 12 and week 24 during the clinical study described in Example 2) by the investigator according to 3 modalities: “Improvement” (includes marked, moderate and minimal improvement), “No change” and “Worsening” (includes minimal, moderate and marked worsening).\nFIG. 7 illustrates the responder analysis at week 24 based on a combined criterion defined as followed: […]\nchange from baseline to Week 24 lower than or equal to −2 points in the ADAS-Cog total score, and\nchange from baseline to Week 24 greater than or equal to 0 point in the ADCS-ADL global score, and\nno worsening according to the CGIC assessment at Week 24."}, "[5]": {"tested_on": "patients with mild to moderate Alzheimer's disease", "test": "clinical study, treatment emergent adverse events (TEAE)", "type": "in vivo, human", "conditions": "for Patients with an TEAE / Patients with any treatment emergent serious adverse event / TEAE: Anxiety / TEAE: Cardiac disorders / TEAE: Depressive disorders / TEAE: Dermatitis / TEAE: Diarrhea / TEAE: Dyspepsia / TEAE: Gastrointestinal disorders / TEAE: Hiatus hernia / TEAE: Infections and infestations / TEAE: Muscle spasm / TEAE: Musculoskeletal and connective tissue disorders / TEAE: Other (Falls) / TEAE: Psychiatric disorders / TEAE: Rashes / TEAE: Skin and subcutaneous tissue disorders / TEAE: Sleep disorders and Disturbance / TEAE: Vascular disorders: with donepezil", "protocol": "as §1, §2, §3"}}}
{"molecule": "CN1CCC[C@H]1CCNS(=O)(=O)c1ccc2c(c1)CN(CC1CCCCC1)CC2", "note": "[API, 2-(cyclohexylmethyl)-N-{2-[(2S)-1-methylpyrrolidin-2-yl]ethyl}-1,2,3,4-tetrahydroisoquinoline-7-sulfonamide difumarate monohydrate]", "values": [{"measurement": "procognitive effect of co-administration in object recognition test", "setting": "[1]; 3 mg/kg co-administered with 3 mg/kg donepezil hydrochloride, 48 hours post administration", "value": "significant procognitive effect"}, {"measurement": "memory in object recognition test", "setting": "[1]; 3 mg/kg oral, individually, 24 hours after administration", "value": "enhanced the memory"}, {"measurement": "procognitive effect in object recognition test", "setting": "[1]; 3 mg/kg oral, individually, after 48 hours", "value": "lack of procognitive effect"}, {"measurement": "activity of the amount given alone, episodic memory deficits", "setting": "[2]; 0.3 mg/kg alone", "value": "inactive"}, {"measurement": "episodic memory deficits, co-treatment", "setting": "[2]; 0.3 mg/kg with donepezil hydrochloride 1 mg/kg", "value": "reversed episodic memory deficits"}, {"measurement": "AES-I change from baseline vs placebo", "setting": "[3]; after 12 weeks, mITT", "value": "significant difference"}, {"measurement": "AES-I difference vs placebo", "setting": "[3]; at 24 weeks and follow-up", "value": "no longer significant"}, {"measurement": "rate of responder on a combined criterion (ADAS-Cog, ADCS-ADL, CGIC)", "setting": "[4]; 5 mg group with donepezil", "value": 16.7, "unit": "%"}, {"measurement": "rate of responders over placebo", "setting": "[4]; 5 mg/day with donepezil", "value": "higher rate"}, {"measurement": "Patients with an TEAE", "setting": "[5]; 0.5 mg (N = 72)", "value": "53 (73.6%)"}, {"measurement": "Patients with any treatment emergent serious adverse event", "setting": "[5]; 0.5 mg (N = 72)", "value": "10 (13.9%)"}, {"measurement": "TEAE: Anxiety", "setting": "[5]; 0.5 mg (N = 72)", "value": "3 (4.2%)"}, {"measurement": "TEAE: Cardiac disorders", "setting": "[5]; 0.5 mg (N = 72)", "value": "5 (6.9%)"}, {"measurement": "TEAE: Depressive disorders", "setting": "[5]; 0.5 mg (N = 72)", "value": "1 (1.4%)"}, {"measurement": "TEAE: Dermatitis", "setting": "[5]; 0.5 mg (N = 72)", "value": "1 (1.4%)"}, {"measurement": "TEAE: Diarrhea", "setting": "[5]; 0.5 mg (N = 72)", "value": "7 (9.7%)"}, {"measurement": "TEAE: Dyspepsia", "setting": "[5]; 0.5 mg (N = 72)", "value": "1 (1.4%)"}, {"measurement": "TEAE: Gastrointestinal disorders", "setting": "[5]; 0.5 mg (N = 72)", "value": "11 (15.3%)"}, {"measurement": "TEAE: Hiatus hernia", "setting": "[5]; 0.5 mg (N = 72)", "value": 0, "unit": "%"}, {"measurement": "TEAE: Infections and infestations", "setting": "[5]; 0.5 mg (N = 72)", "value": "20 (27.8%)"}, {"measurement": "TEAE: Muscle spasm", "setting": "[5]; 0.5 mg (N = 72)", "value": "1 (1.4%)"}, {"measurement": "TEAE: Musculoskeletal and connective tissue disorders", "setting": "[5]; 0.5 mg (N = 72)", "value": "5 (6.9%)"}, {"measurement": "TEAE: Other (Falls)", "setting": "[5]; 0.5 mg (N = 72)", "value": "9 (12.5%)"}, {"measurement": "TEAE: Psychiatric disorders", "setting": "[5]; 0.5 mg (N = 72)", "value": "21 (29.2%)"}, {"measurement": "TEAE: Rashes", "setting": "[5]; 0.5 mg (N = 72)", "value": "1 (1.4%)"}, {"measurement": "TEAE: Skin and subcutaneous tissue disorders", "setting": "[5]; 0.5 mg (N = 72)", "value": "7 (9.7%)"}, {"measurement": "TEAE: Sleep disorders and Disturbance", "setting": "[5]; 0.5 mg (N = 72)", "value": "12 (16.7%)"}, {"measurement": "TEAE: Vascular disorders", "setting": "[5]; 0.5 mg (N = 72)", "value": "2 (2.8%)"}, {"measurement": "Patients with an TEAE", "setting": "[5]; 2 mg (N = 72)", "value": "54 (76.1%)"}, {"measurement": "Patients with any treatment emergent serious adverse event", "setting": "[5]; 2 mg (N = 72)", "value": "10 (14.1%)"}, {"measurement": "TEAE: Anxiety", "setting": "[5]; 2 mg (N = 72)", "value": "4 (5.6%)"}, {"measurement": "TEAE: Cardiac disorders", "setting": "[5]; 2 mg (N = 72)", "value": "3 (4.2%)"}, {"measurement": "TEAE: Depressive disorders", "setting": "[5]; 2 mg (N = 72)", "value": "2 (2.8%)"}, {"measurement": "TEAE: Dermatitis", "setting": "[5]; 2 mg (N = 72)", "value": "3 (4.2%)"}, {"measurement": "TEAE: Diarrhea", "setting": "[5]; 2 mg (N = 72)", "value": "7 (9.9%)"}, {"measurement": "TEAE: Dyspepsia", "setting": "[5]; 2 mg (N = 72)", "value": "1 (1.4%)"}, {"measurement": "TEAE: Gastrointestinal disorders", "setting": "[5]; 2 mg (N = 72)", "value": "18 (25.4%)"}, {"measurement": "TEAE: Hiatus hernia", "setting": "[5]; 2 mg (N = 72)", "value": 0, "unit": "%"}, {"measurement": "TEAE: Infections and infestations", "setting": "[5]; 2 mg (N = 72)", "value": "11 (15.5%)"}, {"measurement": "TEAE: Muscle spasm", "setting": "[5]; 2 mg (N = 72)", "value": "2 (2.8%)"}, {"measurement": "TEAE: Musculoskeletal and connective tissue disorders", "setting": "[5]; 2 mg (N = 72)", "value": "12 (16.9%)"}, {"measurement": "TEAE: Other (Falls)", "setting": "[5]; 2 mg (N = 72)", "value": "7 (9.9%)"}, {"measurement": "TEAE: Psychiatric disorders", "setting": "[5]; 2 mg (N = 72)", "value": "18 (25.4%)"}, {"measurement": "TEAE: Rashes", "setting": "[5]; 2 mg (N = 72)", "value": "4 (5.6%)"}, {"measurement": "TEAE: Skin and subcutaneous tissue disorders", "setting": "[5]; 2 mg (N = 72)", "value": "15 (21.1%)"}, {"measurement": "TEAE: Sleep disorders and Disturbance", "setting": "[5]; 2 mg (N = 72)", "value": "11 (15.5%)"}, {"measurement": "TEAE: Vascular disorders", "setting": "[5]; 2 mg (N = 72)", "value": "3 (4.3%)"}, {"measurement": "Patients with an TEAE", "setting": "[5]; 5 mg (N = 69)", "value": "59 (85.5%)"}, {"measurement": "Patients with any treatment emergent serious adverse event", "setting": "[5]; 5 mg (N = 69)", "value": "8 (11.6%)"}, {"measurement": "TEAE: Anxiety", "setting": "[5]; 5 mg (N = 69)", "value": "4 (5.8%)"}, {"measurement": "TEAE: Cardiac disorders", "setting": "[5]; 5 mg (N = 69)", "value": "5 (7.2%)"}, {"measurement": "TEAE: Depressive disorders", "setting": "[5]; 5 mg (N = 69)", "value": "5 (7.2%)"}, {"measurement": "TEAE: Dermatitis", "setting": "[5]; 5 mg (N = 69)", "value": "3 (4.3%)"}, {"measurement": "TEAE: Diarrhea", "setting": "[5]; 5 mg (N = 69)", "value": "4 (5.8%)"}, {"measurement": "TEAE: Dyspepsia", "setting": "[5]; 5 mg (N = 69)", "value": "3 (4.3%)"}, {"measurement": "TEAE: Gastrointestinal disorders", "setting": "[5]; 5 mg (N = 69)", "value": "17 (24.6%)"}, {"measurement": "TEAE: Hiatus hernia", "setting": "[5]; 5 mg (N = 69)", "value": "3 (4.3%)"}, {"measurement": "TEAE: Infections and infestations", "setting": "[5]; 5 mg (N = 69)", "value": "16 (23.2%)"}, {"measurement": "TEAE: Muscle spasm", "setting": "[5]; 5 mg (N = 69)", "value": "7 (10.6%)"}, {"measurement": "TEAE: Musculoskeletal and connective tissue disorders", "setting": "[5]; 5 mg (N = 69)", "value": "16 (23.2%)"}, {"measurement": "TEAE: Other (Falls)", "setting": "[5]; 5 mg (N = 69)", "value": "7 (10.1%)"}, {"measurement": "TEAE: Psychiatric disorders", "setting": "[5]; 5 mg (N = 69)", "value": "27 (39.1%)"}, {"measurement": "TEAE: Rashes", "setting": "[5]; 5 mg (N = 69)", "value": "1 (1.4%)"}, {"measurement": "TEAE: Skin and subcutaneous tissue disorders", "setting": "[5]; 5 mg (N = 69)", "value": "5 (7.2%)"}, {"measurement": "TEAE: Sleep disorders and Disturbance", "setting": "[5]; 5 mg (N = 69)", "value": "21 (30.4%)"}, {"measurement": "TEAE: Vascular disorders", "setting": "[5]; 5 mg (N = 69)", "value": "3 (4.3%)"}, {"measurement": "sleep disorders and disturbances, incidence among groups", "setting": "[5]; 5 mg group", "value": "highest incidence"}, {"measurement": "safety and tolerability", "setting": "[5]; 0.5, 2, 5 mg/day with donepezil, 24 weeks", "value": "safe and well tolerated"}, {"measurement": "vascular disorders, incidence over placebo", "setting": "[5]; all treated groups", "value": "low incidence"}]}
